Test results: patent publication US20240360178A1, “MACROCYCLIC IMMUNOMODULATORS” (Bristol-Myers Squibb Company, priority 2021, published 2024)
Positions of bridges follow the written chain, without caps; N, C: chain ends. Non-standard residues stand in square brackets, D forms with d. Residues, ends and D or L forms follow the SMILES beside them. *: point of attachment. Phe(4-COOH) = N[C@@H](Cc1ccc(C(=O)O)cc1)C(=O)O; Bip = N[C@@H](Cc1ccc(-c2ccccc2)cc1)C(=O)O; Phe(3-CN) = N#Cc1cccc(C[C@H](N)C(=O)O)c1; Phe(3-Me) = Cc1cccc(C[C@H](N)C(=O)O)c1; Val(3-OH) = CC(C)(O)[C@H](N)C(=O)O; 4Pal = N[C@@H](Cc1ccncc1)C(=O)O; Cha = N[C@@H](CC1CCCCC1)C(=O)O; Cit = NC(=O)NCCC[C@H](N)C(=O)O; dPip = O=C(O)[C@H]1CCCCN1; Carboxymethyl = O=C(O)C*; NMeA = CN[C@@H](C)C(=O)O; Dab = NCC[C@H](N)C(=O)O; NBuGly = CCCCNCC(=O)O

Biological target: T1, human PD-1 (Jurkat-PD-1 cells) / PE-labeled human PD-L1-Ig (Homo sapiens, UniProt Q15116)
T1 construct: expressed in transfected cells; host or cells: Jurkat cell line over-expressing human PD-1
T1 sequence (Q15116 25-288): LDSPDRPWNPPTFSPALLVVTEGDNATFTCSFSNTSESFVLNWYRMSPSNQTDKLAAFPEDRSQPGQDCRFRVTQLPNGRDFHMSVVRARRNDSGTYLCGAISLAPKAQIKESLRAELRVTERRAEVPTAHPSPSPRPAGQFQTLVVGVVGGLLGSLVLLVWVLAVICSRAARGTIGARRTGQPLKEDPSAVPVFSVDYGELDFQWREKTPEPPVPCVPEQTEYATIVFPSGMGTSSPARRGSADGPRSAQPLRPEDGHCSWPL
Assay: Jurkat-PD-1 Cell Binding High-Content Screening Assay (CBA); Jurkat hPD1-PDL1 assay
Settings: Jurkat cell line over-expressing human PD-1; PE-labeled PD-L1-Ig 20 nM final; compound incubated 2 hours at 37° C.; read-out: Jurkat HPD1-PDL1 IC50
Summary of the method: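 Jurkat cells overexpressing human PD-1 (8×10^3 per well, DMEM with 10% FCS) were preincubated with compound for 2 hours at 37° C. PE-labeled human PD-L1-Ig was then added at 20 nM final. Binding was quantified by high-content imaging.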

IC50 [nM]	SMILES
20	Cc1cccc(C[C@@H]2NC(=O)[C@H](CC(=O)O)NC(=O)[C@H](Cc3ccc(OCC(=O)O)cc3)NC(=O)[C@H](Cc3ccncc3)NC(=O)CSC[C@@H](C(=O)N[C@@H](CCN)C(N)=O)NC(=O)[C@H](CO)NC(=O)[C@H](C(C)(C)O)NC(=O)[C@H](CC3CCCCC3)NC(=O)[C@H](CCN)NC(=O)[C@H]3CCCN3C(=O)[C@H](C)N(C)C(=O)[C@H](CCCNC(N)=O)NC(=O)[C@H](Cc3ccc(-c4ccccc4)cc3)NC(=O)[C@H](Cc3ccc(OCC(=O)O)cc3)NC2=O)c1 [Example 1180] ({CH2CO}-[4Pal]Y(Carboxymethyl)D[Phe(3-Me)]Y(Carboxymethyl)[Bip][Cit][NMeA][dP][Dab][Cha][Val(3-OH)]SC[Dab]-NH2; thioether N-14)
100	CC(C)C[C@@H]1NC(=O)[C@H](Cc2c[nH]c3ccccc23)NC(=O)[C@H](CC(=O)O)NC(=O)[C@H](Cc2ccc(OCC(=O)O)cc2)NC(=O)[C@H](Cc2ccncc2)NC(=O)CSC[C@@H](C(=O)N[C@@H](CCN)C(N)=O)NC(=O)[C@H](CO)NC(=O)[C@H](C(C)(C)O)NC(=O)[C@H](CC2CCCCC2)NC(=O)[C@H](CCN)NC(=O)[C@H]2CCCN2C(=O)[C@H](C)N(C)C(=O)[C@H](CCCNC(N)=O)NC(=O)[C@H](Cc2ccc(-c3ccccc3)cc2)NC1=O [Example 1181] ({CH2CO}-[4Pal]Y(Carboxymethyl)DWL[Bip][Cit][NMeA][dP][Dab][Cha][Val(3-OH)]SC[Dab]-NH2; thioether N-14)
240	Cc1cccc(C[C@@H]2NC(=O)[C@H](CC(=O)O)NC(=O)[C@H](Cc3cccc(C#N)c3)NC(=O)[C@H](Cc3ccncc3)NC(=O)CSC[C@@H](C(=O)N[C@@H](CCN)C(N)=O)NC(=O)[C@H](CO)NC(=O)[C@H](C(C)(C)O)NC(=O)[C@H](CC3CCCCC3)NC(=O)[C@H](CCN)NC(=O)[C@H]3CCCN3C(=O)[C@H](C)N(C)C(=O)[C@H](Cc3ccc(OCC(=O)O)cc3)NC(=O)[C@H](Cc3ccc(-c4ccccc4)cc3)NC(=O)[C@H](Cc3ccc(OCC(=O)O)cc3)NC2=O)c1 [Example 1182] ({CH2CO}-[4Pal][Phe(3-CN)]D[Phe(3-Me)]Y(Carboxymethyl)[Bip]Y(Carboxymethyl)[NMeA][dP][Dab][Cha][Val(3-OH)]SC[Dab]-NH2; thioether N-14)
40	CC(C)C[C@@H]1NC(=O)[C@H](Cc2c[nH]c3ccccc23)NC(=O)[C@H](CC(=O)O)NC(=O)[C@H](Cc2cccc(C#N)c2)NC(=O)[C@H](Cc2ccncc2)NC(=O)CSC[C@@H](C(=O)N[C@@H](CCN)C(N)=O)NC(=O)[C@H](CO)NC(=O)[C@H](C(C)(C)O)NC(=O)[C@H](CC2CCCCC2)NC(=O)[C@H](CCN)NC(=O)[C@H]2CCCN2C(=O)[C@H](C)N(C)C(=O)[C@H](C(C)C)NC(=O)[C@H](Cc2ccc(-c3ccccc3)cc2)NC1=O [Example 1183] ({CH2CO}-[4Pal][Phe(3-CN)]DWL[Bip]V[NMeA][dP][Dab][Cha][Val(3-OH)]SC[Dab]-NH2; thioether N-14)
20	Cc1cccc(C[C@@H]2NC(=O)[C@H](CC(=O)O)NC(=O)[C@H](Cc3ccc(OCC(=O)O)cc3)NC(=O)[C@H](Cc3ccncc3)NC(=O)CSC[C@@H](C(=O)N[C@@H](CCN)C(N)=O)NC(=O)[C@H](CO)NC(=O)[C@H](C(C)(C)O)NC(=O)[C@H](CC3CCCCC3)NC(=O)[C@H](CCN)NC(=O)[C@H]3CCCN3C(=O)[C@H](C)N(C)C(=O)[C@H](C(C)C)NC(=O)[C@H](Cc3ccc(-c4ccccc4)cc3)NC(=O)[C@H](Cc3ccc(OCC(=O)O)cc3)NC2=O)c1 [Example 1184] ({CH2CO}-[4Pal]Y(Carboxymethyl)D[Phe(3-Me)]Y(Carboxymethyl)[Bip]V[NMeA][dP][Dab][Cha][Val(3-OH)]SC[Dab]-NH2; thioether N-14)
30	CC(C)C[C@@H]1NC(=O)[C@H](Cc2c[nH]c3ccccc23)NC(=O)[C@H](CC(=O)O)NC(=O)[C@H](Cc2ccc(OCC(=O)O)cc2)NC(=O)[C@H](Cc2ccncc2)NC(=O)CSC[C@@H](C(=O)N[C@@H](CCN)C(N)=O)NC(=O)[C@H](CO)NC(=O)[C@H](C(C)(C)O)NC(=O)[C@H](CC2CCCCC2)NC(=O)[C@H](CCN)NC(=O)[C@H]2CCCN2C(=O)[C@H](C)N(C)C(=O)[C@H](C(C)C)NC(=O)[C@H](Cc2ccc(-c3ccccc3)cc2)NC1=O [Example 1185] ({CH2CO}-[4Pal]Y(Carboxymethyl)DWL[Bip]V[NMeA][dP][Dab][Cha][Val(3-OH)]SC[Dab]-NH2; thioether N-14)
380	CCCCN1CC(=O)N[C@@H](CCN)C(=O)N[C@@H](CC2CCCCC2)C(=O)N[C@@H](C(C)C)C(=O)N[C@@H](CO)C(=O)N[C@H](C(=O)N[C@@H](CCN)C(N)=O)CSCC(=O)N[C@@H]([C@@H](C)O)C(=O)N[C@@H](Cc2ccc(OCC(=O)O)cc2)C(=O)N[C@@H](CC(=O)O)C(=O)N[C@@H](Cc2cccc(C)c2)C(=O)N[C@@H](Cc2ccc(OCC(=O)O)cc2)C(=O)N[C@@H](Cc2ccc(-c3ccccc3)cc2)C(=O)N[C@@H](Cc2ccc(OCC(=O)O)cc2)C(=O)N(C)[C@@H](C)C1=O [Example 1186] ({CH2CO}-TY(Carboxymethyl)D[Phe(3-Me)]Y(Carboxymethyl)[Bip]Y(Carboxymethyl)[NMeA][NBuGly][Dab][Cha]VSC[Dab]-NH2; thioether N-14)
290	CCCCN1CC(=O)N[C@@H](CCN)C(=O)N[C@@H](CC2CCCCC2)C(=O)N[C@@H](C(C)C)C(=O)N[C@@H](CO)C(=O)N[C@H](C(=O)N[C@@H](CCN)C(N)=O)CSCC(=O)N[C@@H](Cc2ccncc2)C(=O)N[C@@H](Cc2ccc(OCC(=O)O)cc2)C(=O)N[C@@H](CC(=O)O)C(=O)N[C@@H](Cc2cccc(C)c2)C(=O)N[C@@H](Cc2ccc(OCC(=O)O)cc2)C(=O)N[C@@H](Cc2ccc(-c3ccccc3)cc2)C(=O)N[C@@H](Cc2ccc(OCC(=O)O)cc2)C(=O)N(C)[C@@H](C)C1=O [Example 1187] ({CH2CO}-[4Pal]Y(Carboxymethyl)D[Phe(3-Me)]Y(Carboxymethyl)[Bip]Y(Carboxymethyl)[NMeA][NBuGly][Dab][Cha]VSC[Dab]-NH2; thioether N-14)
50	CC(C)C[C@@H]1NC(=O)[C@H](Cc2c[nH]c3ccccc23)NC(=O)[C@H](CC(=O)O)NC(=O)[C@H](Cc2ccc(OCC(=O)O)cc2)NC(=O)[C@H]([C@@H](C)O)NC(=O)CSC[C@@H](C(=O)N[C@@H](CCN)C(N)=O)NC(=O)[C@H](CO)NC(=O)[C@H](C(C)(C)O)NC(=O)[C@H](CC2CCCCC2)NC(=O)[C@H](CCN)NC(=O)[C@H]2CCCCN2C(=O)[C@H]2CCCN2C(=O)[C@H](C(C)C)NC(=O)[C@H](Cc2ccc(-c3ccccc3)cc2)NC1=O [Example 1188] ({CH2CO}-TY(Carboxymethyl)DWL[Bip]V[dP][dPip][Dab][Cha][Val(3-OH)]SC[Dab]-NH2; thioether N-14)
70	CC(C)C[C@@H]1NC(=O)[C@H](Cc2c[nH]c3ccccc23)NC(=O)[C@H](CC(=O)O)NC(=O)[C@H](Cc2ccc(C(=O)O)cc2)NC(=O)[C@H](Cc2ccncc2)NC(=O)CSC[C@@H](C(=O)N[C@@H](CCN)C(N)=O)NC(=O)[C@H](CO)NC(=O)[C@H](C(C)(C)O)NC(=O)[C@H](CC2CCCCC2)NC(=O)[C@H](CCN)NC(=O)[C@H]2CCCCN2C(=O)[C@H]2CCCN2C(=O)[C@H](C(C)C)NC(=O)[C@H](Cc2ccc(-c3ccccc3)cc2)NC1=O [Example 1189] ({CH2CO}-[4Pal][Phe(4-COOH)]DWL[Bip]V[dP][dPip][Dab][Cha][Val(3-OH)]SC[Dab]-NH2; thioether N-14)
